Measured values from patent US10596172B2 (Celgene CAR LLC, priority 2008, dated 2020).
Where two headings read alike, the source gives them in different places.

How the values were obtained:
[1] = test system: B cell lymphoma cell lines; assay: B cell lymphoma proliferation assay; assay type: cell-based
BTK [2] = target: T1, BTK (Homo sapiens (Human), UniProt Q06187); assay: BTK occupancy from in vitro samples by ELISA (Ramos cells); assay type: cell-based
Method: In order to determine the amount of free BTK in cell or tissue lysates, an ELISA protocol was employed that utilizes a biotinylated probe compound that binds only to free, unoccupied BTK. The conjugated biotin is captured on a streptavidin-coated ELISA plate and detected with a mouse anti-BTK antibody (Becton Dickinson, Franklin Lakes, N.J., USA) and a secondary goat anti-mouse HRP antibody (Zymed, South San Francisco, Calif., USA).
(§1) All samples were prepared with equal concentrations of Biorad lysis buffer (Hercules, Calif., USA), 0.5% bovine serum albumin in PBS with 0.05% Tween-20 to give a final concentration of 1 μM I-215. Samples were incubated in a mixing plate for 1 hr at room temperature while shaking to allow probe compound I-215 to bind to free BTK. After incubation with I-215, samples were added to a washed, streptavidin-coated ELISA plate (Pierce, Rockford, Ill., USA) and incubated for 1 hr at room temperature while shaking. The plate was then washed with PBS containing 0.05% Tween-20 using an automatic plate washer. Anti-BTK antibody was prepared at 1:1000 dilution in 0.5% BSA in PBS (0.05% Tween-20) and added to the ELISA plate. The plate was incubated for 1 hr at room temperature while shaking. The plate was washed as described above and the secondary HRP antibody was prepared at 1:5000 dilution in 0.5% BSA in PBS (0.05% Tween-20). The plate was incubated and washed as described above. TMB was added to the plate, and OD650 was monitored until reaching 1 OD unit. The reaction was then stopped with addition of H2SO4. The plate was analyzed using Gen 5 software, and a 4 Parameter Logistic curve was employed to quantitate samples. Recombinant BTK (Invitrogen, Carlsbad, Calif., USA) was used for the standard curve.
A concentration designated as “A” is greater than 1 nM; a concentration designated as “B” is greater than 10 nM; and a concentration designated as “C” is greater than 50 nM.

BTK [3] = target: T1, BTK; assay: Human primary B cell covalent probe occupancy in vitro; assay type: cell-based; conditions: human primary B cells, 1 h at 37° C.
Method: as §1, with “The plate was incubated and washed as described above.” left out, “The reaction was then stopped with addition of H2SO4.” left out, “Recombinant BTK (Invitrogen, Carlsbad, Calif., USA) was used for the standard curve.” left out
Human primary B cells were isolated as described in Example 256, then resuspended in RPMI media (10% serum). The compound to be analyzed was added at a 1:1000 dilution to media. […] The supernatant was analyzed as described in Example 283 using I-215.

Human naïve B cells = assay: Human primary B cell proliferation assay; assay type: cell-based; conditions: 5 μg/ml α-IgM 72 hours, 3H-thymidine incorporation
Method: Human naïve B cells were purified from 100 mL whole blood using a MACS purification kit designed to isolate CD19+, IgD+ cells by negative selection. Purified naïve B cells were resuspended in RPMI complete and stimulated with 5 μg/ml α-IgM for 72 hours. ^3H-Thymidine was included in the culture media for the final 16 h, cells were harvested and ^3H incorporation measured. Inhibition of B cell proliferation correlates with inhibition of BTK substrate phosphorylation after α-IgM stimulation.

BTK [4] = target: BTK (Canis lupus familiaris, UniProt A0A8I3P3Z9); assay: Dog primary B cell covalent probe occupancy in vitro; assay type: cell-based; conditions: canine PBMCs, one hour at 37° C.
Method: as §1, with “The reaction was then stopped with addition of H2SO4.” left out, “Recombinant BTK (Invitrogen, Carlsbad, Calif., USA) was used for the standard curve.” left out
Canine whole blood (30 mL) was diluted to 50 mL total with 1×PBS and layered on top of Histopaque-1077 (Sigma Aldrich). […] The supernatant was analyzed as described in Example 283 using I-215. […]

BTK [5] = target: BTK (Rattus norvegicus, UniProt Q5S255); assay: BTK occupancy from in vivo samples by ELISA; conditions: po, rats dosed orally 30 mg/kg
Method: as §1
Rats were dosed orally with 30 mg/kg of compound and spleens were harvested either 2 or 24 hours after compound treatment. Rat spleens were disrupted between two microscope slides coated with frosted glass to recover single cell suspensions. Red blood cells were lysed by incubating with RBC lysis buffer (Boston BioProducts) for 2 minutes at room temperature, the cells were then resuspended in RPMI complete media and pelleted by centrifugation. Rat B cells were isolated by positive selection with B220+ antibody-magnetic bead conjugates, purified by MACS column and lysed in Bio-Rad lysis buffer at a concentration of 10 million cells/100 μl. Lysates were analyzed employing the biotinylated probe compound I-215 in an ELISA protocol as described in detail in Example 278.

BTK [6] = target: T1, BTK; assay: Mass spectrometry for BTK (covalent modification of intact protein); assay type: binding; conditions: 1 hr, 10x fold excess of compound
Method: Intact BTK was incubated for 1 hr at a 10× fold excess of I-7 to protein. Aliquots (2 μl) of the samples were diluted with 10 μl of 0.1% TFA prior to micro C4 ZipTipping directly onto the MALDI target using Sinapinic acid as the desorption matrix (10 mg/ml in 0.1% TFA:Acetonitrile 20:80).

JAK3 = JAK3 (Homo sapiens (Human), UniProt P52333); assay: Omnia assay for potency assessment against the active form of JAK3; assay type: biochemical; conditions: read-out: JAK3 Inhibition
[7] = Homo sapiens, DOHH-2, DOHH2 B cell lymphoma cell line, read-out: EC50 (μM) DOHH2
[8] = Homo sapiens, WSUDLCL2, WSU-DLCL2 B cell lymphoma cell line, read-out: EC50 (μM) WSU-DLCL2
[9] = spleen B cells harvested 2 hours after treatment, read-out: % BTK Occupancy 2 h
[10] = spleen B cells harvested 24 hours after treatment, read-out: % BTK Occupancy 24 h

T1 sequence (Q06187 whole entry): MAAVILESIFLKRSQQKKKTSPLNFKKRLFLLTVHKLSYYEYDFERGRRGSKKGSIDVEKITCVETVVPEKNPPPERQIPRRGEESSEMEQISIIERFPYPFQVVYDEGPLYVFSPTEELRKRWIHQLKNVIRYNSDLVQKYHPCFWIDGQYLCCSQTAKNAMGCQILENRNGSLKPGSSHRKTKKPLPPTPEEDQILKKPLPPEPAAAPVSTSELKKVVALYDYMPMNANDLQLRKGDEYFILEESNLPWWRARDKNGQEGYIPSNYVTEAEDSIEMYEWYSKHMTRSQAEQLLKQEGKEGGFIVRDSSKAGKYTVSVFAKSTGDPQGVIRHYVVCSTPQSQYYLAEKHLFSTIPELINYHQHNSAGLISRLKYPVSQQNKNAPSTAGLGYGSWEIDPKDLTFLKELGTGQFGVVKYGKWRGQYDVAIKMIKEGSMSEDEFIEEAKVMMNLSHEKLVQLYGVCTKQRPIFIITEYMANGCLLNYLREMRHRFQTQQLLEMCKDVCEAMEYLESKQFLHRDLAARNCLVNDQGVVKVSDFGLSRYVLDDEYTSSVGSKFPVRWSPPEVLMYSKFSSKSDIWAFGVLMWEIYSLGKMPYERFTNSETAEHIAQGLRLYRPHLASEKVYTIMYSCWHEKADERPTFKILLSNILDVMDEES
BTK (Rattus norvegicus, UniProt Q5S255), sequence (Q5S255 1-660): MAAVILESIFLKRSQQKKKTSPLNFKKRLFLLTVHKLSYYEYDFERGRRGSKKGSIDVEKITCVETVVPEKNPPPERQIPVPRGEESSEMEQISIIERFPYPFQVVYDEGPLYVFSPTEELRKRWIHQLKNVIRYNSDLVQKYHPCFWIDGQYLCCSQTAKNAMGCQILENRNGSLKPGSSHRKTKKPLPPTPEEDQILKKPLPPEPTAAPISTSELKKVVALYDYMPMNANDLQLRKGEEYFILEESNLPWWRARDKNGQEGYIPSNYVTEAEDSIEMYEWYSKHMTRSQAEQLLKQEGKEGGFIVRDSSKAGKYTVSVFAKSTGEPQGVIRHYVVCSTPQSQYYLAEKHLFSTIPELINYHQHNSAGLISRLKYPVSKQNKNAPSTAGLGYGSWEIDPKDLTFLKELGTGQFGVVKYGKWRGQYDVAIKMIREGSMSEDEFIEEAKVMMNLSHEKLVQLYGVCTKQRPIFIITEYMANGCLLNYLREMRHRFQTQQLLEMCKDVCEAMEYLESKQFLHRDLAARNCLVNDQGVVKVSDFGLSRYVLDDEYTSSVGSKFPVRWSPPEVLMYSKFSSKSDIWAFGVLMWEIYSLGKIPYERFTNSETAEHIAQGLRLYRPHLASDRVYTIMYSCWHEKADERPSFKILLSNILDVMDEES
JAK3, sequence (P52333 whole entry): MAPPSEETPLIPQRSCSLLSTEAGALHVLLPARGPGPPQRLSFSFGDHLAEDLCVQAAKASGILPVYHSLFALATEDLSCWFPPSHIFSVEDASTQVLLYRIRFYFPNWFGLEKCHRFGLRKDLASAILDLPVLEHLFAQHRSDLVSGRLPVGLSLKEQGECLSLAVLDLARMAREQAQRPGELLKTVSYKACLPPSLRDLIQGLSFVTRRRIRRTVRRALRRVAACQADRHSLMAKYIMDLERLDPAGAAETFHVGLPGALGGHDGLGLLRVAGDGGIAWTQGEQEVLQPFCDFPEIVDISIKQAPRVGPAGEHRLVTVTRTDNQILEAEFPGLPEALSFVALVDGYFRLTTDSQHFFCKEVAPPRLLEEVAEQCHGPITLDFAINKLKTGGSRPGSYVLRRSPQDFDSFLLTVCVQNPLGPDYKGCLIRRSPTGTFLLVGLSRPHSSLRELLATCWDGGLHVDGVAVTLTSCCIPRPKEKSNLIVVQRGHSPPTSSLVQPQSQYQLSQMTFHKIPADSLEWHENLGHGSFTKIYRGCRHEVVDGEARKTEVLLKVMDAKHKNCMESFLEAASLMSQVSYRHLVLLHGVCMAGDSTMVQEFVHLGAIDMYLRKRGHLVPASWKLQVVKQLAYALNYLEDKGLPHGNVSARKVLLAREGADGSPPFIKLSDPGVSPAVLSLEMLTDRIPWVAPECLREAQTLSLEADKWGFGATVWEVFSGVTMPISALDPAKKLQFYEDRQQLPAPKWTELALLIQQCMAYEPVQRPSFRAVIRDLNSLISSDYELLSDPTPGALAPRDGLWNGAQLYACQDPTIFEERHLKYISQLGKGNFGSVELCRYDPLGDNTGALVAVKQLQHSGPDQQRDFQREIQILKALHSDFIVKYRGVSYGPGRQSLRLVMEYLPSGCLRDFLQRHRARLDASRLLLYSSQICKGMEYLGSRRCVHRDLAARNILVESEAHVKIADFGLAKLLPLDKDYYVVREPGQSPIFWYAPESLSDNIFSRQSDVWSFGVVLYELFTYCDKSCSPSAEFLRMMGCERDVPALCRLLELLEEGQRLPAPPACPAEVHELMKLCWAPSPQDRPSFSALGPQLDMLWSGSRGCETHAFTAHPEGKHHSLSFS
BTK (Canis lupus familiaris, UniProt A0A8I3P3Z9), sequence (A0A8I3P3Z9 1-664): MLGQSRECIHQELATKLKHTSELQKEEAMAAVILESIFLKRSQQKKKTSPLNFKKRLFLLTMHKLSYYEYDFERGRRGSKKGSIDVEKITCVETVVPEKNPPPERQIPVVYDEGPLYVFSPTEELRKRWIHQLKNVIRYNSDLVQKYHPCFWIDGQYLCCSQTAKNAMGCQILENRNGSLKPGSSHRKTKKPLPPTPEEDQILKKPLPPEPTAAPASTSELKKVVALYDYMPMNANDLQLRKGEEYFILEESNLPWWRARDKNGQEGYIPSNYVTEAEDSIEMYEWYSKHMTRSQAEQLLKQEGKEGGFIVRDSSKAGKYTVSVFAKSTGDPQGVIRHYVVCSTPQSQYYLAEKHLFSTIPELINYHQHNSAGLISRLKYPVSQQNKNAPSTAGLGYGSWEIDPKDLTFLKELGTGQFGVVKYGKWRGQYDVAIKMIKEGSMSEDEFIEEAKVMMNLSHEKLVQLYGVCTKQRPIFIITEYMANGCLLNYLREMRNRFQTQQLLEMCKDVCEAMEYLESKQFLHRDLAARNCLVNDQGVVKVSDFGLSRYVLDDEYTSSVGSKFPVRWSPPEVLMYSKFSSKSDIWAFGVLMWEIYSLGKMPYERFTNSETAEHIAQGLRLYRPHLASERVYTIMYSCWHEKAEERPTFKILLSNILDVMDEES

Row | EC50 [1, 7] [µM] | EC50 [1, 8] [µM] | >50% occupancy (concentration at which >50% of BTK is occupied) (BTK [2]) | >90% occupancy (concentration at which >90% of BTK is occupied) (BTK [2]) | concentration at which at least 50% of BTK is occupied (BTK [3]) | concentration at which at least 50% of BTK is occupied (BTK [4]) | receptor occupancy at 30 mg/kg (BTK [5]; [9]) [%] | receptor occupancy at 30 mg/kg (BTK [5]; [10]) [%] | covalent modification of BTK by mass spectrometry (BTK [6]) | IC50 (JAK3) [µM] | EC50 ([1]; DHL4 B cell lymphoma cell line, read-out: EC50 (μM) DHL4) [µM] | Structure (SMILES) | EC50 (Human naïve B cells) [µM]
1 | 0.1 to 1 | 1 to 10 | A (greater than 1 nM) | B (greater than 10 nM) | greater than 10 nM | greater than 10 nM | 87 | 60 | completely modify | < 0.01 |  | C=CC(=O)Nc1cccc(Nc2nc(Nc3ccc(OCCOC)c(F)c3)ncc2F)c1 [Compound I-96, N-(3-(2-(3-fluoro-4-(2-methoxyethoxy)phenylamino)-5-fluoropyrimidin-4-ylamino)phenyl)acrylamide] | 0.001 to 0.01
2 | 1 to 10 | 1 to 10 | A (greater than 1 nM) | C (greater than 50 nM) | greater than 10 nM |  | 99 | 79 | completely modify | < 0.01 | 1 to 10 | C=CC(=O)Nc1cccc(Nc2nc(Nc3ccc(OCCOC)cc3)ncc2F)c1 [Compound I-182, N-(3-(5-fluoro-2-(4-(2-methoxyethoxy)phenylamino)pyrimidin-4-ylamino)phenyl)acrylamide] | 0.001 to 0.01
